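Grown in 96-well plates, cells were treated for 48 hours with each compound at five concentrations. Insufficient inhibition: endpoint recorded as highest concentration tested. The concentration for full growth arrest is given as TGI.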
Assays:
Assay in all cases: inhibition of tumour cell growth, NCI panel, 48 h
CCRF-CEM leukemia = test system: CCRF-CEM leukemia
SF-268 CNS = test system: SF-268 CNS
HL-60(TB) leukemia = test system: HL-60(TB) leukemia
RPMI-8226 leukemia = test system: RPMI-8226 leukemia
NCI-H460 lung = test system: NCI-H460 lung
TK-10 renal = test system: TK-10 renal
SW-620 colon = test system: SW-620 colon
SF-295 CNS = test system: SF-295 CNS
EKVX NSCLC = test system: EKVX NSCLC
U251 CNS = test system: U251 CNS
DU-145 prostate = test system: DU-145 prostate
OVCAR-5 ovarian = test system: OVCAR-5 ovarian
SNB-19 CNS = test system: SNB-19 CNS
NCI-H23 lung = test system: NCI-H23 lung
KM12 colon = test system: KM12 colon
NCI/ADR-RES ovarian = test system: NCI/ADR-RES ovarian
SNB-75 CNS = test system: SNB-75 CNS
HS 578T breast = test system: HS 578T breast
SK-MEL-28 melanoma = test system: SK-MEL-28 melanoma

For `COc1ccccc1C(C1=C(O)COC1=O)c1cc2c(cc1OC(C)=O)OCO2` (configuration not stated), the TGI (CCRF-CEM leukemia) was over 100 µM, the TGI (SF-268 CNS) was over 100 µM and the TGI (HL-60(TB) leukemia) was over 100 µM. It also gave a TGI (RPMI-8226 leukemia) of over 100 µM, a TGI (NCI-H460 lung) of over 100 µM and a TGI (TK-10 renal) of over 100 µM. It also gave a TGI (SW-620 colon) of over 100 µM, a TGI (SF-295 CNS) of over 100 µM and a TGI (EKVX NSCLC) of over 100 µM. For the same compound, the TGI (U251 CNS) was over 100 µM, the TGI (DU-145 prostate) was over 100 µM and the TGI (OVCAR-5 ovarian) was over 100 µM. It also gave a TGI (SNB-19 CNS) of over 100 µM, a TGI (NCI-H23 lung) of over 100 µM and a TGI (KM12 colon) of over 100 µM. The TGI (NCI/ADR-RES ovarian) was over 100 µM, the TGI (SNB-75 CNS) was over 100 µM and the TGI (HS 578T breast) was over 100 µM. The TGI (SK-MEL-28 melanoma) was over 100 µM.

Work on `CC(=O)CCNc1ccc(-c2cc(-c3ccc(N(C)C)cc3)nc3ccc4ccccc4c23)cc1` yielded a TGI (CCRF-CEM leukemia) of over 100 µM, a TGI (SF-268 CNS) of over 100 µM and a TGI (HL-60(TB) leukemia) of 84.4 µM. The TGI (RPMI-8226 leukemia) was over 100 µM, the TGI (NCI-H460 lung) was over 100 µM and the TGI (TK-10 renal) was over 100 µM. The TGI (SW-620 colon) was over 100 µM, the TGI (SF-295 CNS) was over 100 µM and the TGI (EKVX NSCLC) was over 100 µM. For the same compound, the TGI (U251 CNS) was over 100 µM, the TGI (DU-145 prostate) was over 100 µM and the TGI (OVCAR-5 ovarian) was over 100 µM. The TGI (SNB-19 CNS) was over 100 µM, the TGI (NCI-H23 lung) was over 100 µM and the TGI (KM12 colon) was over 100 µM. It also gave a TGI (NCI/ADR-RES ovarian) of over 100 µM, a TGI (SNB-75 CNS) of over 100 µM and a TGI (HS 578T breast) of over 100 µM. For the same compound, the TGI (SK-MEL-28 melanoma) was over 100 µM.

For `CN(c1ccccc1)S(=O)(=O)c1ccccc1[N+](=O)[O-]`, the TGI (CCRF-CEM leukemia) was over 100 µM, the TGI (SF-268 CNS) was over 100 µM and the TGI (HL-60(TB) leukemia) was over 100 µM. It also gave a TGI (RPMI-8226 leukemia) of over 100 µM, a TGI (NCI-H460 lung) of over 100 µM and a TGI (TK-10 renal) of over 100 µM. It also gave a TGI (SW-620 colon) of over 100 µM, a TGI (SF-295 CNS) of over 100 µM and a TGI (EKVX NSCLC) of over 100 µM. It also gave a TGI (U251 CNS) of over 100 µM, a TGI (DU-145 prostate) of over 100 µM and a TGI (OVCAR-5 ovarian) of over 100 µM. It also gave a TGI (SNB-19 CNS) of over 100 µM, a TGI (NCI-H23 lung) of over 100 µM and a TGI (KM12 colon) of over 100 µM. For the same compound, the TGI (NCI/ADR-RES ovarian) was over 100 µM, the TGI (SNB-75 CNS) was over 100 µM and the TGI (HS 578T breast) was over 100 µM. It also gave a TGI (SK-MEL-28 melanoma) of over 100 µM.

Reference: PubChem BioAssay (NCI)
